# Reference: publication PMC11375437, “Selective labelling of GBA2 in cells with fluorescent β-D-arabinofuranosyl cyclitol aziridines” (Chemical Science, 2024)
# Biological target: T1, GBA2 (Homo sapiens, UniProt Q9HCG7)
# T1 sequence (Q9HCG7 1-927): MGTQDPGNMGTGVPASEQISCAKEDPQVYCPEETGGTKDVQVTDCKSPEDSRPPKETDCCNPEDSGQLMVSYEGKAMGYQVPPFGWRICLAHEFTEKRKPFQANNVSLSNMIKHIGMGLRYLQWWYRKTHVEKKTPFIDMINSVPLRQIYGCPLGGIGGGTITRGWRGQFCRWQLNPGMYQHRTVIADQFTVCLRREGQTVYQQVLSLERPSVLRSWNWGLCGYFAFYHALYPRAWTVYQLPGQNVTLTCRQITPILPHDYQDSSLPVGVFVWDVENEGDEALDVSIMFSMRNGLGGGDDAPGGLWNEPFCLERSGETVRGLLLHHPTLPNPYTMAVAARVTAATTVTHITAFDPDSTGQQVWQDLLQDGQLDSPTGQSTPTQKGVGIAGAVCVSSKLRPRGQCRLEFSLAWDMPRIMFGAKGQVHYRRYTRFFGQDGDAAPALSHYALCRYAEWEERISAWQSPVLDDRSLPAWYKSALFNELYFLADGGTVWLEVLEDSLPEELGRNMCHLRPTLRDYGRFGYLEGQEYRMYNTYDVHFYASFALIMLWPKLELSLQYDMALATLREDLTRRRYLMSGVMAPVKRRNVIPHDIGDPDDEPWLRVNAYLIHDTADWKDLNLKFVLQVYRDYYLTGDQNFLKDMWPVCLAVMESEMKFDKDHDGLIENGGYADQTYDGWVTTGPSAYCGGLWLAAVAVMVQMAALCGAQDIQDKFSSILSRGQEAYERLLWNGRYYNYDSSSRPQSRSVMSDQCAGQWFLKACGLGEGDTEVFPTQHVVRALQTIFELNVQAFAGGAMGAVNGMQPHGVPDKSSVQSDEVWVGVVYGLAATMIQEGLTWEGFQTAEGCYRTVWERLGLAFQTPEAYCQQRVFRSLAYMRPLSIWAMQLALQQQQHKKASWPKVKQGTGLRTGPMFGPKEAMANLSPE
# Assay: Confocal microscopy of ABP 4 staining after inhibitor pre-treatment in GBA2 overexpressing cells
# Assay type: cell-based
# Design: expressed in transfected cells; host or cells: HEK293T GBA1/GBA2 KO (CRISPR/Cas9), GBA2 overexpressed
# Conditions: 16 h pre-treatment (21 100 nM, 22 500 nM), then ABP 4 50 nM 2 h; GBA2 OE HEK293T cells
# Experimental: To confirm the specific staining of GBA2, cells overexpressing GBA2 were pre-treated with either the specific GBA1 inhibitor 21 [32] or the GBA1/GBA2 inhibitor 22.[36]
# Figure S11. Confocal fluorescence microscopy of A) HEK293T wild-type (WT), GBA2 overexpression (OE) or GBA1/2 knock out (KO) + GBA2 overexpression (OE) cells. Cells were pre-treated with either DMSO, GBA1/GBA2 inhibitor 22 or GBA1 selective inhibitor 21, and afterwards incubated with β-D-Araf aziridine BODIPY-red ABP 4 (50 nM) for 2 h. Subsequently, cells were fixed and stained for GBA1 (Green) with an anti-GBA1 antibody. B) RAW264.7 cells pre-treated with either DMSO or GBA1/GBA2 inhibitor 22 and incubated β-D-Araf aziridine ABP 4 for (50 nM) for 2 h. […]
# Figure S12. […] Competitive ABPP allow for the determination of apparent IC50 values by quantification of the fluorescence intensity of ABP 7 as described in experimental section. […]
# 2.12 Reactivity of β-D-Araf aziridines towards GBA2 orthologue in other species β-D-Araf aziridine ABP 3-5 or ABP 7 was incubated with homogenates of zebrafish (Danio rerio) larvae or mice brain for 1 h at 37 °C. […] The zebrafish homogenates were passed through a desalting column (in the same way as described for the irreversibility evaluation above) to remove interference from biological pigments when scanning at λEX 473 nm and λEM ≥ 510 nm for BODIPY green fluorescence. […]
smiles,measurement,value
CCCCCN1[C@@H]2[C@H](CO)[C@@H](O)[C@H](O)[C@@H](O)[C@@H]21 (stereo partly shown) [Inhibitor 22],Effect of pre-treatment on ABP 4 staining of GBA2,completely abrogated
